Series [1] concerns Jurkat cells. The series is described as follows: G2 checkpoint abrogation, flow cytometry of bleomycin treated Jurkat cells. Type of series: cell-based, human. Particulars: dose with 40 μg/ml bleomycine giving detectable G2 checkpoint abrogation, 24 hours.
Experimental: Flow cytometry analysis of G2 checkpoint abrogation was performed using human leukemia derived Jurkat cell line. In brief, cultured cells were treated with various doses of peptide/peptidomimetic and 40 μg/ml bleomycine for 24 hr. The DNA of the cells was stained with propidium iodide and analyzed by flow cytometry.
The G2 checkpoint abrogating activity of various arginine rich sequences at different doses on cells treated with bleomycine was studied. Briefly, peptides were added to culture medium of Jurkat cells with bleomycin (40 μg/ml) at 0.2 μg/ml, 0.39 μg/ml, 0.78 μg/ml, 1.56 μg/ml, 3.125 μg/ml, 6.25 μg/ml, 12.5 μg/ml, 25 μg/ml and 50 μg/ml. Cells were subsequently harvested after 24 hours, stained with Krishan's solution, and analyzed with flow cytometry as previously described.
Series [2] concerns Jurkat cells. The series can be described thus: Side effect of peptide used alone: Jurkat cell cycle disturbance (flow cytometry). The series is classed as cell-based. The note with it: dose that produced Jurkat cell cycle disturbance, peptide alone. As for the experimental part: Cell-cycle analysis The cell cycle status of the cells treated with bleomycin or adriamcin were analyzed by flow cytometry as described by Kawabe (1997) Nature 385:454-458. In brief, two million cells were re-suspended and incubated in 200 μl Krishan's solution (0.1% Sodium citrate, 50 μg/ml PI, 20 μg/ml RNase A and 0.5% NP-40) for 1 hr at 4° C. and analyzed by a flow cytometry, FACScan™ (Beckton Dickinson, Mountain View, Calif.) with the program CELLQuest™ (Beckton Dickinson).
(§1) The “Appearance of side effect when used alone” indicates the peptide/peptidomimetic dose that produced Jurkat cell cycle disturbance, i.e., the appearance of significant amounts of SubG1 cells (dead cells) or cells in which the DNA content of each varies more than usual. […] The “G2 abrogating dose” indicates the peptide/peptidomimetic dose with 40 μg/ml bleomycine that produced detectable G2 checkpoint abrogation activity following treatment for 24 hours. The “Appearance of side effect when used with colchicine” indicates the peptide/peptidomimetic dose with 5 μg/ml colchicine that produced Jurkat cell cycle disturbance following treatment for 24 hours.

The subject of series [3] is Jurkat cells. The series can be described thus: M phase checkpoint abrogation / non specific toxicity, colchicine treated Jurkat cells. Type of series: cell-based. The note with it: dose with 5 μg/ml colchicine that produced Jurkat cell cycle disturbance, 24 hours. As for the experimental part: Flow cytometry analysis of M phase checkpoint abrogation by the compounds was performed using human T cell leukemia Jurkat cell line treated with colchicine (5 μg/ml or 0.5 μg/ml) and various doses of peptide/peptidomimetics for 24 hr (FIG. 12). The DNA of the cells was stained and analyzed by flow cytometry as described above.
as §1
A comparison between G2 checkpoint abrogating activity and non specific toxicity (M checkpoint abrogation) by CB501 was performed. In brief, Jurkat cells were treated with 40 μg/ml bleomycin or 0.5 μg/ml colchicine for G2 checkpoint abrogating activity and non specific toxicity, respectively. The DNA amount in each of the treated cells was analyzed by flow cytometry, as previously described.

Another series has as its target PKA. The series can be described thus: In vitro kinase inhibition, PepTag Non-Radioactive Protein Kinase Assay. The series is classed as biochemical.
The target of another series is CHK2 (Homo sapiens, UniProt O96017). Described as above. Type of series: biochemical. Particulars: purified CHK2 kinase. The method, then: Since two kinases, Chk1 and Chk2, are important for G2 checkpoint mechanism, kinase inhibition analysis of both enzymes was performed. In vitro kinase inhibition analysis was performed using “PepTag® Non-Radioactive Protein Kinase Assays”, Promega, according to company's protocol, except purified CHK2 kinase was used instead of PKC.

The nature of series [4]: Human serum treatment analysis (residual G2 checkpoint abrogating activity). Type of series: in vitro ADME. The note with it: 37 degrees. The method, then:
Serum analysis was performed to determine the stability of peptides in mouse and human serum. Briefly, peptides (10 mM or 2.5 mM) were incubated with freshly prepared human serum at 37 degrees for 1 hr. […] Jurkat cells were treated with the serum with or without peptides and bleomycin (40 μg/ml) and incubated for 24 hr. The population of G2 phase cells was determined by flow cytometry as previously described. The residual G2 checkpoint abrogating activity of serum treated peptides were determined by comparing the % G2 cells of the treated serum and the standard curve produced with medium treated peptides, bleomycin and Jurkat cells (Table 5A).

Series [5] concerns the target T1, recombinant human full length Chk1 (Homo sapiens, UniProt O14757).
T1 construct: baculovirus derived recombinant human full length Chk1 with histidine tag; histidine tag; host or cells: baculovirus system (insect cells) for Chk1; E. coli for the GST-Cdc25C substrate
T1 sequence (O14757 1-476): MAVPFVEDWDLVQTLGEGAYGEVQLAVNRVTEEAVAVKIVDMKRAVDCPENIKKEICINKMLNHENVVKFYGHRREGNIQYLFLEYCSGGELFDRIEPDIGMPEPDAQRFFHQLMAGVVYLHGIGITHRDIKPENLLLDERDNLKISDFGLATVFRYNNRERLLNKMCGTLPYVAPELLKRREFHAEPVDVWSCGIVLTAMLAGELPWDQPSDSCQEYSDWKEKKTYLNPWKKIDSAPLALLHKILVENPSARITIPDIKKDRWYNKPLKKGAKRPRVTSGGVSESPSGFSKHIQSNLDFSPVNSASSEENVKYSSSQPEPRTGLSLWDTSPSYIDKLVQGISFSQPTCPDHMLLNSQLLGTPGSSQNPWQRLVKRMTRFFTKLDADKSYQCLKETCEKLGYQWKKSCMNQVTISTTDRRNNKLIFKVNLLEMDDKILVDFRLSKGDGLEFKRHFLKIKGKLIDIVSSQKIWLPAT
The series is described as follows: In vitro kinase inhibition (CycLex), phosphorylation of serine 216 on GST-Cdc25C. Type of series: biochemical. As for the experimental part:
(§2) In vitro kinase inhibition analysis was performed by CycLex, Co. Ltd., Nagano, Japan. Briefly, baculovirus derived recombinant human full length Chk1 with histidine tag or E. Coli derived recombinant human full length Chk2 fused with GST were used as kinases. E. Coli derived recombinant GST-Cdc25C (amino acis 167-267) was used as a substrate. Reaction conditions were 20 mM Hepes-KOH (pH7.5), 1 mM DTT, 80 μg/ml BSA, 10 mM MgCl2 and […] at 30 degree for 60 min. The phosphorylation of serine 216 on GST-Cdc25C was detected by anti-Cdc25C-phosphorylated 5216 antibody with enzyme linked immune assay.

For series [6], the target named is T2, recombinant human full length Chk2 (Homo sapiens, UniProt O96017).
T2 construct: E. Coli derived recombinant human full length Chk2 fused with GST; host or cells: E. coli
Described as above. The series is classed as biochemical. As for the experimental part:
as §2

Another series relates to MIAPaCa2. Particulars: three hours exposure. As for the experimental part: The medium was changed and incubated an additional 24, 48 or 72 hour. Following incubation, 20 μl of alamarBlue 90% reagent was added to each well for another 6 hours for detection of cell viability by fluorescent intensity. Fluorescent intensity was measured using a Spectrafluor Plus plate reader with exitation 530 nm and emission 590 nm. The IC50 was calculated (Table 6).

A further series relates to CT26WT. The series can be described thus: CT26WT s.c. syngeneic tumor model in Balb/c mice (Example 9). Particulars: CDDP 5 mg/kg, CBP501 7.5 mg/kg, anti-mPD1 200 ug, 3 dosing cycles. The series is classed as in vivo, mouse. As for the experimental part:
Relative sizes of tumors were plotted versus the number of days after initiation of the treatment.
All animal studies were conducted according to the protocols approved by the institutional animal care committee of CanBas Co. Ltd. Six-week-old female Balb/c mice (Charles River Laboratories Japan Inc.) were inoculated subcutaneously in the flank with a suspension of CT26WT (5×10^5 cells). […] Tumor volumes, measured thrice weekly with a pair of calipers, were calculated with the following formula: volume (mm^3)=[width (mm)]^2×length (mm)/2. Growth curves after treatment were generated by plotting the mean+/−SE of tumor sizes.
Treatments were initiated when tumor size were reached (˜100 mm^3).

Like-named read-outs stand apart in the source and are kept apart here. Square brackets hold non-standard residues; d marks the D form. Peptide text beside a SMILES is read from it. dPhe(4-NO2) = N[C@H](Cc1ccc([N+](=O)[O-])cc1)C(=O)O; dPhe(F5) = N[C@H](Cc1c(F)c(F)c(F)c(F)c1F)C(=O)O; dBpa = N[C@H](Cc1ccc(C(=O)c2ccccc2)cc1)C(=O)O; dCha = N[C@H](CC1CCCCC1)C(=O)O

The term IC50 denotes the midpoint of a concentration-inhibition curve.

T2 sequence (O96017 whole entry, the tested form may be a part): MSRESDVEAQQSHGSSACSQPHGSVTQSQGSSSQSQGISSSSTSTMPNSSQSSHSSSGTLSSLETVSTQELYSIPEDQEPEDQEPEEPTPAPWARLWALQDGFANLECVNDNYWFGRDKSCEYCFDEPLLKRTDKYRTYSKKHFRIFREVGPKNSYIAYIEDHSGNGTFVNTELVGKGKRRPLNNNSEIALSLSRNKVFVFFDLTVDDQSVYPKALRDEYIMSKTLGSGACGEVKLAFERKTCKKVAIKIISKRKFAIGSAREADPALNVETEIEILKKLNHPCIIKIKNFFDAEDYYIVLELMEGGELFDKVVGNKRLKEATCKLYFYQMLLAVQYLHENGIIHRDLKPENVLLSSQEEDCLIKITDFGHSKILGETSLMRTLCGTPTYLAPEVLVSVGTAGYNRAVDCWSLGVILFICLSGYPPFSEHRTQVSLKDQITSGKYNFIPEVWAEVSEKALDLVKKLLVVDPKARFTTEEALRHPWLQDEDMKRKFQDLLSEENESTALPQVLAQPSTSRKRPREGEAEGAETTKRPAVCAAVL
Chain of CHK2 (O96017 whole entry): as the sequence (O96017 whole entry, the tested form may be a part) above

`N=C(N)NCCC[C@@H](NC(=O)[C@@H](CCCCN)NC(=O)[C@@H](CCCCN)NC(=O)[C@@H](CCCNC(=N)N)NC(=O)[C@@H](CCCNC(=N)N)NC(=O)[C@@H](CCC(N)=O)NC(=O)[C@@H](CCCNC(=N)N)NC(=O)[C@@H](CCCNC(=N)N)NC(=O)[C@@H](CCCNC(=N)N)NC(=O)[C@@H](CC1CCCCC1)NC(=O)[C@@H](Cc1c(F)c(F)c(F)c(F)c1F)NC(=O)[C@@H](CCCNC(=N)N)NC(=O)[C@@H](CO)NC(=O)CNC(=O)[C@@H](CO)NC(=O)[C@@H](Cc1ccc(O)cc1)NC(=O)[C@H](N)Cc1ccc(O)cc1)C(=O)NCC(=O)N[C@H](Cc1ccc(O)cc1)C(=O)O` [CBP450, (d-Tyr)(d-Tyr)(d-Ser)(1-Gly)(d-Ser)(d-Arg)(d-Phe-2,3,4,5,6-F)(d-Cha)(d-Arg)(d-Arg)(d-Arg)(d-Gln)(d-Arg)(d-Arg)(d-Lys)(d-Lys)(d-Arg)(1-Gly)(d-Tyr)] (H-[dY][dY][dS]G[dS][dR][dPhe(F5)][dCha][dR][dR][dR][dQ][dR][dR][dK][dK][dR]G[dY]-OH; N-terminus and C-terminus assumed): in the series with Jurkat cells [1], the G2 abrogating dose was ≥0.78 µM. Also, the “Appearance of side effect when used alone” value (“Appearance … when used alone” below) in the series with Jurkat cells [2] is >6.25 µM. The “Appearance of side effect when used with Colchicine” value (from here on “Appearance … with Colchicine”) in the series with Jurkat cells [3] is >6.25 µM. Moreover, the IC50 at PKA is > 400 µM; on CHK2, 10 µM.
Take `N=C(N)NCCC[C@H](NC(=O)CNC(=O)[C@@H](N)Cc1ccc(O)cc1)C(=O)N[C@@H](CCCCN)C(=O)N[C@@H](CCCCN)C(=O)N[C@@H](CCCNC(=N)N)C(=O)N[C@@H](CCCNC(=N)N)C(=O)N[C@@H](CCC(N)=O)C(=O)N[C@@H](CCCNC(=N)N)C(=O)N[C@@H](CCCNC(=N)N)C(=O)N[C@@H](CCCNC(=N)N)C(=O)N[C@@H](CC1CCCCC1)C(=O)N[C@@H](Cc1c(F)c(F)c(F)c(F)c1F)C(=O)N[C@@H](CCCNC(=N)N)C(=O)N[C@@H](CO)C(=O)N1CCC[C@H]1C(=O)N[C@@H](CO)C(=O)N[C@@H](Cc1ccc(O)cc1)C(=O)N[C@@H](Cc1ccc(O)cc1)C(=O)O` [CBP413, (1-Tyr)(1-Gly)(1-Arg)(1-Lys)(1-Lys)(1-Arg)(1-Arg)(1-Gln)(1-Arg)(1-Arg)(1-Arg)(1-Cha)(1-Phe-2,3,4,5,6-F)(1-Arg)(1-Ser)(1-Pro)(1-Ser)(1-Tyr)(1-Tyr)]: in the series on Jurkat cells [1], the G2 abrogating dose is ≥1.56 µM. Moreover, the “Appearance … when used alone” value with Jurkat cells [2] was >25 µM. The “Appearance … with Colchicine” value in the series with Jurkat cells [3] was >25 µM. For the same compound, the “Residual activity of peptide after 1 hr human serum treatment” value in [4] is listed as <0.4% of original.
As for `N=C(N)NCCC[C@@H](NC(=O)[C@@H](CCCNC(=N)N)NC(=O)[C@@H](CCC(N)=O)NC(=O)[C@@H](CCCNC(=N)N)NC(=O)[C@@H](CCCNC(=N)N)NC(=O)[C@@H](CCCNC(=N)N)NC(=O)[C@@H](CC1CCCCC1)NC(=O)[C@@H](Cc1c(F)c(F)c(F)c(F)c1F)NC(=O)[C@@H](CO)NC(=O)[C@@H](Cc1c[nH]c2ccccc12)NC(=O)[C@@H](CO)NC(=O)[C@@H](Cc1ccc(C(=O)c2ccccc2)cc1)NC(=O)[C@H](N)Cc1ccc(O)cc1)C(=O)O` [CBP500, (d-Tyr)(d-Bpa)(d-Ser)(d-Trp)(d-Ser)(d-Phe-2,3,4,5,6-F)(d-Cha)(d-Arg)(d-Arg)(d-Arg)(d-Gln)(d-Arg)(d-Arg)] (H-[dY][dBpa][dS][dW][dS][dPhe(F5)][dCha][dR][dR][dR][dQ][dR][dR]-OH; N-terminus and C-terminus assumed), the G2 abrogating dose in the series with Jurkat cells [1] was ≥0.39 µM. Moreover, in the series on Jurkat cells [2], the “Appearance … when used alone” value is >50 µM. Moreover, in the series with Jurkat cells [3], the “Appearance … with Colchicine” value was >12.5 µM. Further, the IC50 is 5.6 µM in series [5] and 8 µM in series [6].
For the compound `N.N.[Cl][Pt][Cl]` [cisplatin, cis-diamminodichloroplatinum, reference compound], the IC50 in the series on MIAPaCa2 (read-out: IC50 24 hr, additional 24 hour) was 16 µM; in the series on MIAPaCa2 (read-out: IC50 48 hr, additional 48 hour), 31 µM; in the series on MIAPaCa2 (read-out: IC50 72 hr, additional 72 hour), 46 µM. Further, the “Reduction of tumor growth as compared to vehicle-treated mice” value in the series with CT26WT is reported as 52.7%.
With `N=C(N)NCCC[C@@H](NC(=O)[C@@H](CCCNC(=N)N)NC(=O)[C@@H](CCC(N)=O)NC(=O)[C@@H](CCCNC(=N)N)NC(=O)[C@@H](CCCNC(=N)N)NC(=O)[C@@H](CCCNC(=N)N)NC(=O)[C@@H](CC1CCCCC1)NC(=O)[C@@H](Cc1ccc([N+](=O)[O-])cc1)NC(=O)[C@@H](CO)NC(=O)[C@@H](Cc1c[nH]c2ccccc12)NC(=O)[C@@H](CO)NC(=O)[C@H](N)Cc1ccc(C(=O)c2ccccc2)cc1)C(=O)O` [CBP603, (d-Bpa)(d-Ser)(d-Trp)(d-Ser)(d-Phe4No2)(d-Cha)(d-Arg)(d-Arg)(d-Arg)(d-Gln)(d-Arg)(d-Arg)] (H-[dBpa][dS][dW][dS][dPhe(4-NO2)][dCha][dR][dR][dR][dQ][dR][dR]-OH; N-terminus and C-terminus assumed), the figures for the IC50 in series [5] and in series [6] were 15.5 µM and 18.1 µM, respectively. In addition, the “Residual activity of peptide after 1 hr human serum treatment” value in series [4] was >50% of original.
